Values belong to the compound of their own block, whether it stands above or below them.
Assays:
COLO 205 = assay: 72 hr cell titer Glo proliferation assay, COLO 205; assay type: cell-based; conditions: Homo sapiens, single agent, COLO 205, BRAFV600E
Experimental: (§1) All cell lines express the BRAFV600E protein, except MDST8 which expresses the BRAFV600K variant. Cells harboring known or putative activating mutations in the PI3Kα gene are marked with a (*) and cells with PTEN loss marked with a (#). Cell proliferation was measured in 72 hr cell titer Glo™ assays and all results shown are the result of at least triplicate measurements. […] Interactions were deemed synergistic when scores ≧2.0 where observed.

RKO = assay: 72 hr cell titer Glo proliferation assay, RKO; assay type: cell-based; conditions: Homo sapiens, single agent, RKO (PI3Kα mutation), BRAFV600E
Experimental: as §1

SW1417 = assay: 72 hr cell titer Glo proliferation assay, SW1417; assay type: cell-based; conditions: Homo sapiens, single agent, SW1417, BRAFV600E
Experimental: as §1

CYP3A4 = CYP3A4 (Homo sapiens, UniProt P08684); assay: CYP3A4 interaction; assay type: in vitro ADME
CL-34 = assay: 72 hr cell titer Glo proliferation assay, CL-34; assay type: cell-based; conditions: single agent, CL-34, BRAFV600E
Experimental: as §1

OUMS-23 = assay: 72 hr cell titer Glo proliferation assay, OUMS-23; assay type: cell-based; conditions: single agent, OUMS-23 (PTEN loss), BRAFV600E
Experimental: as §1

LS411N = assay: 72 hr cell titer Glo proliferation assay, LS411N; assay type: cell-based; conditions: Homo sapiens, LS-411N, single agent, BRAFV600E
Experimental: as §1

[1] = tested on: HT-29 human colorectal adenocarcinoma xenograft; assay type: in vivo; conditions: for T/C: D29, 100×ΔT/ΔC for ΔT>0; for T/C / Mean Volume Day 1 / Mean Volume Day 29 / Mean Volume Change (ΔT): Cpd A 20 mg/kg po bid x 28, Cpd B 25 mg/kg po qd x 28, cetuximab 20 mg/kg ip biwk x 4, paclitaxel 30 mg/kg iv qod x 5; for Mean Volume Day 1: Day 1, start of dosing; for Mean Volume Change (ΔT): between D1 and D29; for Mean BW Nadir, day of nadir / Deaths NTR / Deaths TR / Regressions CR / Regressions PR: doses as in table; for Deaths NTR / Deaths TR / Regressions CR / Regressions PR: n = 10 per group; for Statistical Significance vs G1: vs Group 1 (vehicles), tumor volume change D1-D29
Experimental: A fresh suspension was prepared every two weeks and stored at room temperature.
A fresh suspension was prepared weekly and stored at 4° C.
Dosing solutions were freshly prepared for one group at a time.
Each agent was administered at a single dose level, individually and in dual and triple combinations, that were initiated on Day 1 (D1) in female nude mice with established subcutaneous tumors. […] Efficacy was determined from mean tumor volume changes between D1 and D29. Prism summarizes test results as not significant (ns) at P>0.05, significant (symbolized by “*”) at 0.01<P≦0.05, very significant (“**”) at 0.001<P≦0.01, and extremely significant (“***”) at P≦0.001.
For the purpose of statistical analyses, ΔTV, the difference in tumor volume between D1 (the start of dosing) and the endpoint day, was determined for every animal. […] The […] values are negative represent net tumor reduction for a group. […] Response to Combination Therapies (Groups 5-8)

Rat ADME bioavailability = assay type: in vivo; conditions: pre-clinical
HT-29 = assay: 72 hr cell titer Glo proliferation assay, HT-29; assay type: cell-based; conditions: Homo sapiens, single agent, HT-29 (PI3Kα mutation), BRAFV600E
Experimental: as §1

SNU-C5 = assay: 72 hr cell titer Glo proliferation assay, SNU-C5; assay type: cell-based; conditions: single agent, SNU-C5 (PI3Kα mutation), BRAFV600E
Experimental: as §1

BCRP = target: T1, BCRP (Homo sapiens, UniProt Q9UNQ0); assay: BCRP interaction; assay type: in vitro ADME
T1 sequence (Q9UNQ0 1-655): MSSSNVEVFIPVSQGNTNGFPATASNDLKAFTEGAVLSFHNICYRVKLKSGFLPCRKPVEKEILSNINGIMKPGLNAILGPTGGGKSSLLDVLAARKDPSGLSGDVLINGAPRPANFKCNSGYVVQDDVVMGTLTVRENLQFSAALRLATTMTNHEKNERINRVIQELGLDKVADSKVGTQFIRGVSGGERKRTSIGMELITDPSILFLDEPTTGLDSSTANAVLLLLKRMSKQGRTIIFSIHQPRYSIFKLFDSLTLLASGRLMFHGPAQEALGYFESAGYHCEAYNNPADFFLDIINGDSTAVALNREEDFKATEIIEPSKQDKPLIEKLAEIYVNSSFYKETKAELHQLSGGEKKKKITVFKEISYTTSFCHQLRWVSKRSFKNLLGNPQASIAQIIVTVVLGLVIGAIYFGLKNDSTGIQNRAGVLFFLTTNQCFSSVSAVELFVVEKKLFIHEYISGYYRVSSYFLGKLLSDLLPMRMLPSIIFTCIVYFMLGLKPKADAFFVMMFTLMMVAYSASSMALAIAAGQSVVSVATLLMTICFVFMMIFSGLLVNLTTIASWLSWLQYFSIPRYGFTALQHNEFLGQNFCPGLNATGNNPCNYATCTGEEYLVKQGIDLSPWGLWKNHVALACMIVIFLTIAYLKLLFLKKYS

MDST8 = assay: 72 hr cell titer Glo proliferation assay, MDST8; assay type: cell-based; conditions: single agent, MDST8, BRAFV600K
Experimental: as §1

[2] = tested on: BRAF-mutant CRC-derived cell lines; assay: Proliferation of BRAF-mutant CRC-derived cell lines, panel summary; assay type: cell-based; conditions: all cell lines tested
Experimental: as §1

Chain of CYP3A4 (P08684 whole entry): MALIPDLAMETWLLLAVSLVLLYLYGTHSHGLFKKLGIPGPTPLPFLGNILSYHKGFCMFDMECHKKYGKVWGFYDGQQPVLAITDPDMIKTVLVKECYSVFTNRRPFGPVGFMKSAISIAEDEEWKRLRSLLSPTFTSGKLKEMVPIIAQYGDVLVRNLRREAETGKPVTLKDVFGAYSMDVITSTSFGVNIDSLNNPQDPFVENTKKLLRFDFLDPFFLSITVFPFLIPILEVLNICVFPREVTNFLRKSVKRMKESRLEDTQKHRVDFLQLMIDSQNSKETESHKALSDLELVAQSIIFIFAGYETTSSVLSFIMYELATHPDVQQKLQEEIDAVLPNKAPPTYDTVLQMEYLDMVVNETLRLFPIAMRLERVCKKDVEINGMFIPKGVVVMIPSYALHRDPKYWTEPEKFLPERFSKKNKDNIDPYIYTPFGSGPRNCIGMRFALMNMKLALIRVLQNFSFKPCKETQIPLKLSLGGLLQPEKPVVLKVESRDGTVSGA

Compound: Cc1nc(NC(=O)N2CCC[C@H]2C(N)=O)sc1-c1ccnc(C(C)(C)C(F)(F)F)c1 [Compound B, (S)-Pyrrolidine-1,2-dicarboxylic acid 2-amide 1-({4-methyl-5-[2-(2,2,2-trifluoro-1,1-dimethyl-ethyl)-pyridin-4-yl]-thiazol-2-yl}-amide)]
IC50 (COLO 205): > 2700 nM
IC50 (RKO): > 2700 nM
IC50 (SW1417): > 2700 nM
CYP3A4 inhibition (CYP3A4): time dependent inhibitor of CYP3A4
IC50 (CL-34): > 2700 nM
IC50 (OUMS-23): > 2700 nM
IC50 (LS411N): > 2700 nM
T/C [1]: 57%
Mean Volume Day 1 [1]: 122 mm^3
Mean Volume Day 29 [1]: 660 mm^3
Mean Volume Change (ΔT) [1]: 538 mm^3
Mean BW Nadir, day of nadir [1]: Day 8
Deaths NTR [1]: 0
Deaths TR [1]: 0
Regressions CR [1]: 0
Regressions PR [1]: 0
Statistical Significance vs G1 [1]: ns (not significant (ns) at P>0.05)
bioavailability (Rat ADME bioavailability): 58%
IC50 (HT-29): > 2700 nM
IC50 (SNU-C5): > 2700 nM
BCRP substrate (BCRP): substrate of BCRP

Compound: CC(=O)O[C@H]1C(=O)[C@@]2(C)[C@H]([C@H](OC(=O)c3ccccc3)[C@]3(O)C[C@H](OC(=O)[C@H](O)[C@@H](NC(=O)c4ccccc4)c4ccccc4)C(C)=C1C3(C)C)[C@]1(OC(C)=O)CO[C@@H]1C[C@@H]2O [Paclitaxel, paclitaxel, reference compound]
T/C [1]: 11%
Mean Volume Day 1 [1]: 122 mm^3
Mean Volume Day 29 [1]: 229 mm^3
Mean Volume Change (ΔT) [1]: 107 mm^3
Mean BW Nadir, day of nadir [1]: Day 11
Deaths NTR [1]: 0
Deaths TR [1]: 0
Regressions CR [1]: 0
Regressions PR [1]: 0
Statistical Significance vs G1 [1]: ** (very significant (“**”) at 0.001<P≦0.01)

Compound: COC(=O)N[C@@H](C)CNc1nccc(-c2cn(C(C)C)nc2-c2cc(Cl)cc(NS(C)(=O)=O)c2F)n1 [Compound A]
IC50 (COLO 205): 5 nM
IC50 (MDST8): 319 nM
metabolism (CYP3A4): mainly metabolized by CYP3A4
IC50 (CL-34): 30 nM
single agent activity on proliferation [2]: significant single agent activity
IC50 (OUMS-23): > 2700 nM
IC50 (LS411N): 18 nM
T/C [1]: 95%
Mean Volume Day 1 [1]: 122 mm^3
Mean Volume Day 29 [1]: 1016 mm^3
Mean Volume Change (ΔT) [1]: 894 mm^3
Mean BW Nadir, day of nadir [1]: Day 8
Deaths NTR [1]: 0
Deaths TR [1]: 0
Regressions CR [1]: 0
Regressions PR [1]: 0
Statistical Significance vs G1 [1]: ns (not significant (ns) at P>0.05)
IC50 (HT-29): 49 nM
IC50 (SNU-C5): > 2700 nM
BCRP inhibition (BCRP): inhibitor of BCRP

IC50 (COLO 205): > 2700 nM
IC50 (SW1417): > 2700 nM
IC50 (HT-29): > 2700 nM
IC50 (SNU-C5): > 2700 nM
Compound: C#Cc1cccc(Nc2ncnc3cc(OCCOC)c(OCCOC)cc23)c1 [Erlotinib, erlotinib, reference compound]
IC50 (RKO): > 2700 nM
IC50 (MDST8): > 2700 nM
IC50 (CL-34): > 2700 nM
IC50 (OUMS-23): > 2700 nM
IC50 (LS411N): > 2700 nM
